Laboratory results from the supplement of paper PMC10307832.

Columns and labels:
Test in all cases: relative viability (nuclei count vs DMSO), 5 days (fraction); higher = more cells survive
LU99A = system: LU99A
Summary of the method: (§1)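 Relative viability is defined as nuclei in treated wells over nuclei in vehicle wells. Duplicate plates were run and medians reported. Lung cancer cell lines in 1536-well plates were dosed by pin tool one day after seeding, with one drug or with a fixed anchor-drug dose plus five library-drug doses (not always all listed) in √10 steps, and nuclei were counted after 5 days.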

NCI-H1395 = system: NCI-H1395
Summary of the method: as §1

NCI-H1437 = system: NCI-H1437
Summary of the method: as §1

NCI-H1666 = system: NCI-H1666
Summary of the method: as §1

NCI-H1975 = system: NCI-H1975
Summary of the method: as §1

NCI-H2085 = system: NCI-H2085
Summary of the method: as §1

NCI-H2087 = system: NCI-H2087
Summary of the method: as §1

NCI-H2342 = system: NCI-H2342
Summary of the method: as §1

NCI-H358 = system: NCI-H358
Summary of the method: as §1

NCI-H647 = system: NCI-H647
Summary of the method: as §1

PC-3 [JPC-3] = system: PC-3 [JPC-3]
Summary of the method: as §1

SW 1573 = system: SW 1573
Summary of the method: as §1

## NC(=O)Nc1cc(-c2cccc(F)c2)sc1C(=O)N[C@H]1CCCNC1 [AZD7762] + O=C(CCCCCCC(=O)Nc1ccccc1)NO [Vorinostat] (partner 1 µM)
LU99A; first compound 0.1 µM
  relative viability: 0.561
LU99A; first compound 0.3162 µM
  relative viability: 0.345
LU99A; first compound 1 µM
  relative viability: 0.171
NCI-H1395; first compound 0.01 µM
  relative viability: 0.721
NCI-H1395; first compound 0.03162 µM
  relative viability: 0.84
NCI-H1395; first compound 0.1 µM
  relative viability: 0.684
NCI-H1395; first compound 0.3162 µM
  relative viability: 0.32
NCI-H1395; first compound 1 µM
  relative viability: 0.336
NCI-H1437; first compound 0.01 µM
  relative viability: 0.964
NCI-H1437; first compound 0.03162 µM
  relative viability: 0.85
NCI-H1437; first compound 0.1 µM
  relative viability: 0.88
NCI-H1437; first compound 0.3162 µM
  relative viability: 0.639
NCI-H1437; first compound 1 µM
  relative viability: 0.49
NCI-H1666; first compound 0.01 µM
  relative viability: 1.16
NCI-H1666; first compound 0.03162 µM
  relative viability: 1.17
NCI-H1666; first compound 0.1 µM
  relative viability: 1.22
NCI-H1666; first compound 0.3162 µM
  relative viability: 1.21
NCI-H1666; first compound 1 µM
  relative viability: 1.07
NCI-H1975; first compound 0.01 µM
  relative viability: 0.725
NCI-H1975; first compound 0.03162 µM
  relative viability: 0.641
NCI-H1975; first compound 0.1 µM
  relative viability: 0.655
NCI-H1975; first compound 0.3162 µM
  relative viability: 0.626
NCI-H1975; first compound 1 µM
  relative viability: 0.401
NCI-H2085; first compound 0.01 µM
  relative viability: 0.788
NCI-H2085; first compound 0.03162 µM
  relative viability: 0.784
NCI-H2085; first compound 0.1 µM
  relative viability: 0.862
NCI-H2085; first compound 0.3162 µM
  relative viability: 0.803
NCI-H2085; first compound 1 µM
  relative viability: 0.628
NCI-H2087; first compound 0.01 µM
  relative viability: 0.891
NCI-H2087; first compound 0.03162 µM
  relative viability: 0.874
NCI-H2087; first compound 0.1 µM
  relative viability: 0.841
NCI-H2087; first compound 0.3162 µM
  relative viability: 0.976
NCI-H2087; first compound 1 µM
  relative viability: 0.791
NCI-H2342; first compound 0.01 µM
  relative viability: 0.715
NCI-H2342; first compound 0.03162 µM
  relative viability: 0.85
NCI-H2342; first compound 0.1 µM
  relative viability: 0.722
NCI-H2342; first compound 0.3162 µM
  relative viability: 0.74
NCI-H2342; first compound 1 µM
  relative viability: 0.633
NCI-H358; first compound 0.01 µM
  relative viability: 0.687
NCI-H358; first compound 0.03162 µM
  relative viability: 0.667
NCI-H358; first compound 0.1 µM
  relative viability: 0.658
NCI-H358; first compound 0.3162 µM
  relative viability: 0.346
NCI-H358; first compound 1 µM
  relative viability: 0.0934
NCI-H647; first compound 0.01 µM
  relative viability: 0.637
NCI-H647; first compound 0.03162 µM
  relative viability: 0.554
NCI-H647; first compound 0.1 µM
  relative viability: 0.521
NCI-H647; first compound 0.3162 µM
  relative viability: 0.281
NCI-H647; first compound 1 µM
  relative viability: 0.108
PC-3 [JPC-3]; first compound 0.01 µM
  relative viability: 0.644
PC-3 [JPC-3]; first compound 0.03162 µM
  relative viability: 0.888
PC-3 [JPC-3]; first compound 0.1 µM
  relative viability: 0.759
PC-3 [JPC-3]; first compound 0.3162 µM
  relative viability: 0.607
PC-3 [JPC-3]; first compound 1 µM
  relative viability: 0.501
SW 1573; first compound 0.01 µM
  relative viability: 1.16
SW 1573; first compound 0.03162 µM
  relative viability: 0.994
SW 1573; first compound 0.1 µM
  relative viability: 0.821
SW 1573; first compound 0.3162 µM
  relative viability: 0.648
SW 1573; first compound 1 µM
  relative viability: 0.102
